In US12617835B2, “Chimeric autoantibody receptor (CAAR) that binds autoantibodies targeting the central nervous system in neurological autoimmune disease” (Deutsches Zentrum für Neurodegenerative Erkrankungen e. V. …, priority 2019, dated 2026):

Assays:
[1] = system: K562 cells expressing NR1-reactive antibodies on their surface; test: Interferon-γ release on co-culture with K562 cells expressing surface NR1-reactive antibodies; type: cell-based; details: 50,000 T-cells co-cultured 1:1 with K562 cells, 48 hours
Description: 50,000 CAAR T-cells were co-cultured 1:1 with K562 cells expressing NR1-reactive or control antibodies on their surface for 48 hours.

[2] = system: K562 cells expressing surface NR1-reactive antibodies; test: Cell lysis of K562 target cells (7-AAD, flow cytometry); type: cell-based; details: E:T ratios 30:1 to 1:1, 4 hours
Description: For quantification of cell killing, target cells were incubated with CAAR T-cells at different Effector: Target (E:T) ratios ranging from 30:1 to 1:1 for 4 hours. Dead cells were stained by 7-AAD and analyzed by flow cytometry.
Target K562 cells were incubated with CAAR T-cells at different Effector:Target (E:T) ratios ranging from 30:1 to 1:1.

[3] = system: Nalm6 cells with surface-presentation of NR1 autoantibody #003-102; test: In vivo bioluminescence imaging of Nalm6 burden in mice; details: bioluminescence on day 9 (4 days post-treatment); preliminary data
Description: Nalm6 cells with surface-presentation of NR1 autoantibody and expressing a Luciferase enzyme (e.g. firefly-Luciferase) tagged with a fluorescent protein (e.g. GFP), are injected on day 1 into mice. On day 5, therapeutic CAAR-T cells expressing a CAAR of the present invention or control T cells without CAAR expression are injected. Bioluminescence imaging is conducted regularly, for example at time points 1, 5, 8, 12, 15, 19 and 22 days, to assess therapeutic effect against the Nalm6 cells. […]
In order to show therapeutic efficacy in an animal model in vivo, Nalm6 cells with surface-presentation of NR1 autoantibody #003-102 or #008-218 and expressing the Luciferase enzyme firefly-Luciferase (ffluc) tagged with a fluorescent protein (GFP, green fluorescent protein), were injected on day 1 into 16 mice. […] As a read-out of the assay, animal survival, target cell reduction (via in vivo bioluminescence measurements) and serum antibody levels are determined. […]
The potential readouts for the assay relate to bioluminescence imaging quantification (for the detection of in vivo killing), quantification of anti-NR1 serum levels by ELISA (for the detection of reduction of circulating antibodies), and postmortem analysis of treated animals (in order to determine off-target toxicity). […]

[4] = system: Nalm6 target cells expressing NR1-reactive antibody #003-102; test: Luciferase-assay of specific lysis of Nalm6 target cells, with or without Dasatinib; type: cell-based
Description: For quantification of cell killing, Nalm6 target cells expressing NR1-reactive antibody #003-102 were incubated with CAAR T-cells at different Effector:Target (E:T) ratios ranging from 1:2 to 8:1 for 18 hours. Percentage of specific lysis was determined by reduction of bioluminescence in a Luciferase-assay.
Results are depicted in FIG. 10.

## ATD-S1-S2-CAAR: T cells transduced with CAAR: CD8 leader/NMDAR ATD-S1-Linker1-S2/Linker2/CD8a TM/CD137 co-stim/CD3z signaling
[1]
  release of interferon-γ: massively released
[2]
  killing of K562 cells expressing surface NR1-reactive antibodies: dose-dependent killing
[3]
  animals with drastic reduction of Nalm6 burden: 5/6
[4]; Dasatinib (safety strategy)
  inactivation of CAAR T cells by Dasatinib: temporarily halted
[4]; E:T ratios 1:2 to 8:1, 18 hours
  killing of Nalm6 target cells: dose-dependent killing
